# Measured values published in the NIST ThermoML archive (doi:10.1021/je300692s).
# Numbers after ± are expanded uncertainties.
# Test: activity coefficient (dimensionless); of the first substance listed, at infinite dilution; xn = mol fraction of the nth substance listed
# Conditions: 101 kPa, Liquid, Chromatography, x1 = 0
Structure (SMILES),activity coefficient (322.6 K),activity coefficient (332.5 K),activity coefficient (342.8 K),activity coefficient (323 K),activity coefficient (333 K),activity coefficient (343.1 K),activity coefficient (322.9 K)
CCCC(C)=O [pentan-2-one] + CCCCCCCCCC[N+]1(C)CCCC1.O=S(=O)([N-]S(=O)(=O)C(F)(F)F)C(F)(F)F,0.52 ± 0.06,0.53 ± 0.06,0.54 ± 0.06,–,–,–,–
CCCC(C)=O [pentan-2-one] + CCCCCCCC[N+]1(C)CCCC1.O=S(=O)([N-]S(=O)(=O)C(F)(F)F)C(F)(F)F,–,–,–,0.49 ± 0.05,0.51 ± 0.06,0.48 ± 0.05,–
CCCC(C)=O [pentan-2-one] + CCCCCC[N+]1(C)CCCC1.O=S(=O)([N-]S(=O)(=O)C(F)(F)F)C(F)(F)F,–,–,–,–,0.65 ± 0.07,0.66 ± 0.07,0.59 ± 0.06
CCC(=O)CC [pentan-3-one] + CCCCCCCCCC[N+]1(C)CCCC1.O=S(=O)([N-]S(=O)(=O)C(F)(F)F)C(F)(F)F,0.47 ± 0.05,0.48 ± 0.05,0.5 ± 0.06,–,–,–,–
CCC(=O)CC [pentan-3-one] + CCCCCCCC[N+]1(C)CCCC1.O=S(=O)([N-]S(=O)(=O)C(F)(F)F)C(F)(F)F,–,–,–,0.45 ± 0.05,0.47 ± 0.05,0.44 ± 0.05,–
CCC(=O)CC [pentan-3-one] + CCCCCC[N+]1(C)CCCC1.O=S(=O)([N-]S(=O)(=O)C(F)(F)F)C(F)(F)F,–,–,–,–,0.6 ± 0.06,0.62 ± 0.07,0.47 ± 0.05
CCCO [propan-1-ol] + CCCCCCCCCC[N+]1(C)CCCC1.O=S(=O)([N-]S(=O)(=O)C(F)(F)F)C(F)(F)F,1.62 ± 0.17,1.47 ± 0.15,1.32 ± 0.14,–,–,–,–
CCCO [propan-1-ol] + CCCCCCCC[N+]1(C)CCCC1.O=S(=O)([N-]S(=O)(=O)C(F)(F)F)C(F)(F)F,–,–,–,1.49 ± 0.15,1.29 ± 0.13,1.14 ± 0.12,–
CCCO [propan-1-ol] + CCCCCC[N+]1(C)CCCC1.O=S(=O)([N-]S(=O)(=O)C(F)(F)F)C(F)(F)F,–,–,–,–,1.64 ± 0.17,1.49 ± 0.15,1.72 ± 0.18
CC(C)O [propan-2-ol] + CCCCCCCCCC[N+]1(C)CCCC1.O=S(=O)([N-]S(=O)(=O)C(F)(F)F)C(F)(F)F,1.52 ± 0.16,1.38 ± 0.14,1.25 ± 0.13,–,–,–,–
CC(C)O [propan-2-ol] + CCCCCCCC[N+]1(C)CCCC1.O=S(=O)([N-]S(=O)(=O)C(F)(F)F)C(F)(F)F,–,–,–,1.4 ± 0.14,1.27 ± 0.13,1.06 ± 0.11,–
CC(C)O [propan-2-ol] + CCCCCC[N+]1(C)CCCC1.O=S(=O)([N-]S(=O)(=O)C(F)(F)F)C(F)(F)F,–,–,–,–,1.53 ± 0.16,1.4 ± 0.14,–
c1ccncc1 [pyridine] + CCCCCCCCCC[N+]1(C)CCCC1.O=S(=O)([N-]S(=O)(=O)C(F)(F)F)C(F)(F)F,0.47 ± 0.05,0.47 ± 0.05,0.47 ± 0.05,–,–,–,–
c1ccncc1 [pyridine] + CCCCCCCC[N+]1(C)CCCC1.O=S(=O)([N-]S(=O)(=O)C(F)(F)F)C(F)(F)F,–,–,–,0.42 ± 0.05,0.39 ± 0.05,0.41 ± 0.05,–
c1ccncc1 [pyridine] + CCCCCC[N+]1(C)CCCC1.O=S(=O)([N-]S(=O)(=O)C(F)(F)F)C(F)(F)F,–,–,–,–,0.52 ± 0.06,0.53 ± 0.06,0.52 ± 0.06
ClC(Cl)(Cl)Cl [tetrachloromethane] + CCCCCCCCCC[N+]1(C)CCCC1.O=S(=O)([N-]S(=O)(=O)C(F)(F)F)C(F)(F)F,1.32 ± 0.14,1.12 ± 0.11,1.31 ± 0.13,–,–,–,–
ClC(Cl)(Cl)Cl [tetrachloromethane] + CCCCCCCC[N+]1(C)CCCC1.O=S(=O)([N-]S(=O)(=O)C(F)(F)F)C(F)(F)F,–,–,–,1.39 ± 0.14,1.3 ± 0.13,1.15 ± 0.12,–
ClC(Cl)(Cl)Cl [tetrachloromethane] + CCCCCC[N+]1(C)CCCC1.O=S(=O)([N-]S(=O)(=O)C(F)(F)F)C(F)(F)F,–,–,–,–,1.85 ± 0.19,1.86 ± 0.19,1.78 ± 0.19
c1ccsc1 [thiophene] + CCCCCCCCCC[N+]1(C)CCCC1.O=S(=O)([N-]S(=O)(=O)C(F)(F)F)C(F)(F)F,0.6 ± 0.06,0.6 ± 0.06,0.61 ± 0.07,–,–,–,–
c1ccsc1 [thiophene] + CCCCCCCC[N+]1(C)CCCC1.O=S(=O)([N-]S(=O)(=O)C(F)(F)F)C(F)(F)F,–,–,–,0.57 ± 0.06,0.55 ± 0.06,0.53 ± 0.06,–
c1ccsc1 [thiophene] + CCCCCC[N+]1(C)CCCC1.O=S(=O)([N-]S(=O)(=O)C(F)(F)F)C(F)(F)F,–,–,–,–,0.71 ± 0.07,0.72 ± 0.08,0.7 ± 0.07
Cc1ccccc1 [toluene] + CCCCCCCCCC[N+]1(C)CCCC1.O=S(=O)([N-]S(=O)(=O)C(F)(F)F)C(F)(F)F,0.77 ± 0.08,0.78 ± 0.08,0.8 ± 0.08,–,–,–,–
Cc1ccccc1 [toluene] + CCCCCCCC[N+]1(C)CCCC1.O=S(=O)([N-]S(=O)(=O)C(F)(F)F)C(F)(F)F,–,–,–,0.76 ± 0.08,0.78 ± 0.08,0.74 ± 0.08,–
Cc1ccccc1 [toluene] + CCCCCC[N+]1(C)CCCC1.O=S(=O)([N-]S(=O)(=O)C(F)(F)F)C(F)(F)F,–,–,–,–,1.01 ± 0.1,1.04 ± 0.11,1 ± 0.1
ClC(Cl)Cl [trichloromethane] + CCCCCCCCCC[N+]1(C)CCCC1.O=S(=O)([N-]S(=O)(=O)C(F)(F)F)C(F)(F)F,0.39 ± 0.05,0.39 ± 0.05,0.41 ± 0.05,–,–,–,–
ClC(Cl)Cl [trichloromethane] + CCCCCCCC[N+]1(C)CCCC1.O=S(=O)([N-]S(=O)(=O)C(F)(F)F)C(F)(F)F,–,–,–,0.56 ± 0.06,0.58 ± 0.06,0.53 ± 0.06,–
ClC(Cl)Cl [trichloromethane] + CCCCCC[N+]1(C)CCCC1.O=S(=O)([N-]S(=O)(=O)C(F)(F)F)C(F)(F)F,–,–,–,–,0.72 ± 0.08,0.74 ± 0.08,0.68 ± 0.07
CCCCCCCCCCC [undecane] + CCCCCCCCCC[N+]1(C)CCCC1.O=S(=O)([N-]S(=O)(=O)C(F)(F)F)C(F)(F)F,11.7 ± 1.2,11.2 ± 1.2,10.7 ± 1.1,–,–,–,–
CCCCCCCCCCC [undecane] + CCCCCCCC[N+]1(C)CCCC1.O=S(=O)([N-]S(=O)(=O)C(F)(F)F)C(F)(F)F,–,–,–,16.8 ± 1.8,15.6 ± 1.6,14.6 ± 1.5,–
CCCCCCCCCCC [undecane] + CCCCCC[N+]1(C)CCCC1.O=S(=O)([N-]S(=O)(=O)C(F)(F)F)C(F)(F)F,–,–,–,–,31 ± 3.3,30.1 ± 3.2,34.4 ± 3.6
